Results on eleven compounds are retold here after patent US20240132475A1, “SUBSTITUTED PYRAZOLYL COMPOUNDS AS MALT-1 INHIBITORS” (AURIGENE ONCOLOGY LIMITED, priority 2021, published 2024).

SMILES strings stand for the structures.

In the assay the target is T1, MALT-1 (Isoform 1) (Homo sapiens, UniProt Q9UDY8).
T1 construct: using recombinant MALT-1 (Isoform 1, aa-840) generated in house; made in house
T1 sequence (Q9UDY8 1-824): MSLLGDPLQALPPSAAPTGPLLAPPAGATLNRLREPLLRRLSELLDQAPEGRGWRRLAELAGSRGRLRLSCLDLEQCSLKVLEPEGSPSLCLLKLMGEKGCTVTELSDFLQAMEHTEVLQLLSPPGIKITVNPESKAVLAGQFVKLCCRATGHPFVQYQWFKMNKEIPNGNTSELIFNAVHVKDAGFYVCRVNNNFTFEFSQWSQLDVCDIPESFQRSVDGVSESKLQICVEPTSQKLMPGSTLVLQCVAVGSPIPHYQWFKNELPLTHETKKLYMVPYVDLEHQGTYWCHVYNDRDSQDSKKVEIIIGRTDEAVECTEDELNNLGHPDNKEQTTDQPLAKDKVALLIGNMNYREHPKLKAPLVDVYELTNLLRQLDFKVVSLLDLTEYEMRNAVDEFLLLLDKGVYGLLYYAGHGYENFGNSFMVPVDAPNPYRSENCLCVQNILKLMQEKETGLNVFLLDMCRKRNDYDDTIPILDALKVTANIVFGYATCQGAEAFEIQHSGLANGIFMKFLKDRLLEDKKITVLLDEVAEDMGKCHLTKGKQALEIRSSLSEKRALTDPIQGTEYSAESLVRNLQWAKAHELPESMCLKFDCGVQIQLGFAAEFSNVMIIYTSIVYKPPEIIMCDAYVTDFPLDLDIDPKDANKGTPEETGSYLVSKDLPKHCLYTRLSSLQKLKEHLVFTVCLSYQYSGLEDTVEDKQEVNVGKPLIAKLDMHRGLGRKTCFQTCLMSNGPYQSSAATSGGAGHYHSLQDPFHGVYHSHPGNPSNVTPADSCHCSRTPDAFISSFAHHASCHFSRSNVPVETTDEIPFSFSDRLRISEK
The assay is described as follows: MALT-1 (Isoform 1) enzyme fluorescent biochemical assay. The following applies: for IC50: dose-response, sigmoidal curve fit, reported as groups A, B, C; for inhibition at 1 µM: test compound 1 μM, read-out: Percent Inhibition (1 μM). How it is done: The potency of compounds to inhibit MALT-1 (Isoform 1) enzyme was tested in a Fluorescent assay using recombinant MALT-1 (Isoform 1, aa-840) generated in house. The assay buffer was 50 mM HEPES (pH 7.5), 100 mM NaCl, 10 mM DTT, 1 mM EDTA, 0.9 M sodium citrate, 0.01% CHAPS. 1.5 nM of MALT-1 enzyme was incubated with test compounds ([…]) (1% DMSO) in the presence of buffer for 30 minutes at 30° C. The protease reaction was initiated by adding […] of AC-LRSR-MAC (Peptide International, USA) substrate and incubated for 240 min. After 240 min incubation, fluorescence emission of the samples at 460 nm was measured at an excitation of 355 nm. The percent inhibition was calculated using the following formula: […]. IC50 values were determined by fitting the dose-response data to sigmoidal curve fitting equation using Graph pad prism software V8.
ND represents Not Determined.

By IC50 is commonly meant the point on the concentration scale where inhibition reaches its midpoint. Low readings indicate greater potency, high ones weaker potency. As a reminder, the inhibition is the share of the control response that was lost under treatment. Consider `Cc1c(F)cccc1Cn1ncc(C(=O)Nc2cnc(-n3nccn3)c(Cl)c2)c1C(F)(F)F` [Compound 32, N-(5-chloro-6-(2H-1,2,3-triazol-2-y1)pyridin-3-y1)-1-(3-fluoro-2-methylbenzyl)-5-(trifluoromethyl)-1H-pyrazole-4-carboxamide], for which the IC50 is < 250 nM. Also, the inhibition at 1 µM (recombinant MALT-1 1.5 nM) is 99%.
The corresponding values for `N#Cc1cc(NC(=O)c2cnn(Cc3ccccc3)c2C(F)(F)F)cnc1-n1nccn1` [Compound 7, 1-benzyl-N-(5-cyano-6-(2H-1,2,3-triazol-2-yl)pyridin-3-y1)-5-(trifluoromethyl)-1H-pyrazole-4-carboxamide] are 251 to 1000 nM and 88%.
The corresponding values for `O=C(Nc1cncnc1)c1cnn(Cc2cccc(F)c2Cl)c1C(F)(F)F` [Compound 41, 1-(2-chloro-3-fluorobenzyl)-N-(pyrimidin-5-y1)-5-(trifluoromethyl)-1H-pyrazole-4-carboxamide] are > 1000 nM and 14%.
The corresponding values for `N#Cc1cc(NC(=O)c2cnn(Cc3cccc(F)c3Br)c2C(F)(F)F)cnc1-n1nccn1` [Compound 38, 1-(2-bromo-3-fluorobenzy1)-N-(5-cyano-6-(2H-1,2,3-triazol-2-yl)pyridin-3-yl)-5-(trifluoromethyl)-1H-pyrazole-4-carboxamide] are < 250 nM and 100%.
As for `O=C(Nc1cc(C(F)(F)F)ccn1)c1cnn(Cc2cccc(F)c2Cl)c1C(F)(F)F` [Compound 46, 1-(2-chloro-3-fluorobenzyl)-5-(trifluoromethyl)-N-(4-(trifluoromethyl)pyridin-2-yl)-1H-pyrazole-4-carboxamide], the IC50 is > 1000 nM. Also, the inhibition at 1 µM (recombinant MALT-1 1.5 nM) was found to be 32%.
The corresponding values for `N#Cc1cc(NC(=O)c2cnn(Cc3ccc(F)c(Cl)c3)c2C(F)(F)F)cnc1-n1nccn1` [Compound 21, 1-(3-chloro-4-fluorobenzy1)-N-(5-cyano-6-(2H-1,2,3-triazol-2-yl)pyridin-3-yl)-5-(trifluoromethyl)-1H-pyrazole-4-carboxamide] are > 1000 nM and 23%.
As for `CC(c1cccc(F)c1)n1ncc(C(=O)Nc2cnc(-n3nccn3)c(Cl)c2)c1C(F)(F)F` (single isomer, unassigned) [Compound 4a], the IC50 is > 1000 nM. Further, the inhibition at 10 µM (test compound 10 μM (stated in the cell), recombinant MALT-1 1.5 nM, read-out: Percent Inhibition (10 μM)) was found to be 83%.
For the compound `CC(c1ccccc1)n1ncc(C(=O)Nc2cnc(-n3nccn3)c(C#N)c2)c1C(F)(F)F` (racemic) [Compound 2, N-(5-cyano-6-(2H-1,2,3-triazol-2-yl)pyridin-3-yl)-1-(1-phenylethyl)-5-(trifluoromethyl)-1H-pyrazole-4-carboxamide], the half-maximal inhibitory concentration (IC50) is < 250 nM. Besides, the inhibition at 1 µM (recombinant MALT-1 1.5 nM) was 96%.
The corresponding values for `N#Cc1cc(NC(=O)c2cnn(Cc3cccc(F)c3)c2C2CC2)cnc1-n1nccn1` [Compound 23, N-(5-cyano-6-(2H-1,2,3-triazol-2-yl)pyridin-3-yl)-5-cyclopropyl-1-(3-fluorobenzyl)-1H-pyrazole-4-carboxamide] are > 1000 nM and 45%.
Regarding `N#Cc1cc(NC(=O)c2cnn(Cc3cccc(F)c3)c2C(F)(F)F)cnc1-n1nccn1` [Compound 15, N-(5-cyano-6-(2H-1,2,3-triazol-2-yl)pyridin-3-y1)-1-(3-fluorobenzy1)-5-(trifluoromethyl)-1H-pyrazole-4-carboxamide], the IC50 was < 250 nM. Further, the inhibition at 1 µM (recombinant MALT-1 1.5 nM) stood at 99%.
As for `CCC(c1cccc(F)c1)n1ncc(C(=O)Nc2cnc(-n3nccn3)c(C#N)c2)c1C(F)(F)F` (stereo not shown) [Compound 6, N-(5-cyano-6-(2H-1,2,3-triazol-2-yl)pyridin-3-y1)-1-(1-(3-fluorophenyl)propyl)-5-(trifluoromethyl)-1H-pyrazole-4-carboxamide], the IC50 was 251 to 1000 nM. In addition, the inhibition at 1 µM (recombinant MALT-1 1.5 nM) is 81%.
